{"source": "patent US6689767B2", "about": "“Triterpenes having antibacterial activity” (Regents of the University of Minnesota, priority 2000, dated 2004)", "assay_type_in_all_cases": "cell-based", "key": {"Escherichia coli": {"tested_on": "Escherichia coli", "test": "Kirby-Bauer disk diffusion growth inhibition, Escherichia coli", "details": "for zone of inhibition at 0.125 µg/mL: read-out: Zone of inhibition Escherichia coli", "protocol": "(§1) The compounds disclosed herein were tested for growth inhibition against four strains of bacteria: Escherichia coli, Staphylococcus aureus, methicillin-resistant Staphylococcus aureus, and Bacillus subtilis. […] They represent […]. E. coli is a gram-negative, non-spore forming, rod-shaped, opportunistic pathogen that resides in the human digestive tract. S. aureus is a gram positive coccus, is usually found morphologically as a […], and is an opportunistic human pathogen, often residing on or in the skin. B. subtilis is a gram positive spore-forming rod. Its native environment is the soil. The chemicals were tested for growth-inhibition of the bacteria by the Kirby-Bauer method. See, e.g., Microbiology, third edition; Lansing M. Prescott, John P. Harley, and Donald A. Klein; Wm. C. Brown Publishers.\n(§2) Mueller-Hinton agar (Difco Lab, Michigan) was prepared according to the manufacturer's directions, and 20 ml was dispensed in each sterile petri dish. Sterile nutrient broth (Difco Lab, Michigan) was also prepared according to the manufacturer's directions.\n(§3) Bacteria were grown in liquid nutrient broth for 18 hours at 37° C. until they were turbid.\n(§4) An aliquot of 0.5 ml of cultured bacteria was aseptically transferred to the surface of a Mueller-Hinton agar plat, and spread using a cotton-tipped swab. Plates were then allowed to dry for 5 minutes. Then a 10 mm diameter filter paper disk impregnated with the test chemical was placed with sterile forceps on the plate. The disks were impregnated with 100 μl of a solution of the test compound in DMSO or in water, at the indicated concentrations in Table 1.\n(§5) The zones of inhibition were measured after 18 hours growth at 37° C. Tests were done in triplicate.\n(§6) Additional compounds were tested for activity against E. coli, laboratory strain S. aureus (not methicillin resistant), and B. subtilis. The compounds were tested by the disk diffusion method, as in Example 1, with application of a 10 mg/mil solution of the test compound in DMSO."}, "Staphylococcus aureus": {"tested_on": "Staphylococcus aureus", "test": "Kirby-Bauer disk diffusion growth inhibition, Staphylococcus aureus", "details": "for zone of inhibition at 0.125 µg/mL: read-out: Zone of inhibition Staphylococcus aureus", "protocol": "as §1, §2, §3, §4, §5, §6\nDerivatives of lupeol were tested for inhibition of bacterial growth using the Kirby-Bauer disk diffusion method and by growth in liquid culture. For the disk diffusion method, compounds were dissolved in DMSO and 100 μl was added to the 10 mm filter paper disk. The amount of compound applied to the disk varied. The amount applied for each compound was as follows: lupeol (50 μg), lupeol-3-maleate (15 μg), lupeol-3-thiodiglycolate (15 μg), lupeol-3-dimethyl succinate (60 μg), lupeol-3-phosphate (30 μg), lupenone (50 μg), lupenon-3-oxime (50 μg), lupeol-3-amine (50 μg), lupenon-1,2-ene-2-ol (50 μg). In liquid culture, the compounds were dissolved in DMSO at 1 mg/ml and then 100 μl was added to 7 ml of sterile broth, along with a 1/200 dilution of freshly grown bacterial liquid culture."}, "Bacillus subtilis": {"tested_on": "Bacillus subtilis", "test": "Kirby-Bauer disk diffusion growth inhibition, Bacillus subtilis", "details": "for zone of inhibition at 0.125 µg/mL: read-out: Zone of inhibition Bacillus subtilis", "protocol": "as §1, §2, §3, §4, §5, §6"}, "[1]": {"details": "125 ng/ml in water, 100 μl on 10 mm disk, 18 hours 37° C."}, "[2]": {"details": "Escherichia coli, 125 ng/ml in water, 100 μl on 10 mm disk, 18 hours 37° C."}, "[3]": {"details": "Staphylococcus aureus, 125 ng/ml in water, 100 μl on 10 mm disk, 18 hours 37° C."}, "[4]": {"details": "Bacillus subtilis, 125 ng/ml in water, 100 μl on 10 mm disk, 18 hours 37° C."}}, "data": [{"compound": "C=C(C)[C@@H]1CC[C@]2(COC(=O)[C@@H]3CCCN3)CC[C@]3(C)[C@H](CC[C@@H]4[C@@]5(C)CC[C@H](OC(=O)[C@@H]6CCCN6)C(C)(C)[C@@H]5CC[C@]43C)[C@@H]12", "note": "[Betulin Di-(L-proline) ester]", "values": [{"measurement": "Zone of inhibition Escherichia coli", "setting": "Escherichia coli; [1]", "result": 0, "unit": "mm"}, {"measurement": "Zone of inhibition Staphylococcus aureus", "setting": "Staphylococcus aureus; [1]", "result": 0, "unit": "mm"}, {"measurement": "Zone of inhibition Bacillus subtilis", "setting": "Bacillus subtilis; [1]", "result": 0, "unit": "mm"}]}, {"compound": "C=C(C)C1CCC2(COC(=O)C(N)Cc3ccccc3)CCC3(C)C(CCC4C5(C)CCC(OC(=O)C(N)Cc6ccccc6)C(C)(C)C5CCC43C)C12", "note": "(stereo not drawn) [Betulin-3,28-diphenylalanine ester]", "values": [{"measurement": "Zone of inhibition Escherichia coli", "setting": "Escherichia coli; [1]", "result": 0, "unit": "mm"}, {"measurement": "Zone of inhibition Staphylococcus aureus", "setting": "Staphylococcus aureus; [1]", "result": 0, "unit": "mm"}, {"measurement": "Zone of inhibition Bacillus subtilis", "setting": "Bacillus subtilis; [1]", "result": 0, "unit": "mm"}]}, {"compound": "C=C(C)[C@@H]1CC[C@]2(CO)CC[C@]3(C)[C@H](CC[C@@H]4[C@@]5(C)CC[C@H](O)C(C)(C)[C@@H]5CC[C@]43C)[C@@H]12", "note": "[Betulin]", "values": [{"measurement": "zone of inhibition at 1000 µg/mL", "setting": "Escherichia coli; Escherichia coli, 1 mg/ml in DMSO, 100 μl on 10 mm disk, 18 hours 37° C.", "result": 0, "unit": "mm"}, {"measurement": "zone of inhibition at 1000 µg/mL", "setting": "Staphylococcus aureus; Staphylococcus aureus, 1 mg/ml in DMSO, 100 μl on 10 mm disk, 18 hours 37° C.", "result": 0, "unit": "mm"}, {"measurement": "zone of inhibition at 1000 µg/mL", "setting": "Bacillus subtilis; Bacillus subtilis, 1 mg/ml in DMSO, 100 μl on 10 mm disk, 18 hours 37° C.", "result": 0, "unit": "mm"}]}, {"compound": "C=C(C)C1CCC2(C)CCC3(C)C(CCC4C5(C)CCC(OC(=O)c6ccccc6C(=O)O)C(C)(C)C5CCC43C)C12", "note": "(stereo not drawn) [Lupeol-3-phthalate]", "values": [{"measurement": "zone of inhibition at 0.125 µg/mL", "setting": "Escherichia coli; [2]", "result": 0, "unit": "mm"}, {"measurement": "zone of inhibition at 0.125 µg/mL", "setting": "Staphylococcus aureus; [3]", "result": 0, "unit": "mm"}, {"measurement": "zone of inhibition at 0.125 µg/mL", "setting": "Bacillus subtilis; [4]", "result": 0, "unit": "mm"}]}, {"compound": "C=C(C)C1CCC2(C)CCC3(C)C(CCC4C5(C)CCC(OC(=O)CCC(=O)O)C(C)(C)C5CCC43C)C12", "note": "(stereo not drawn) [Lupeol-3-succinate]", "values": [{"measurement": "zone of inhibition at 0.125 µg/mL", "setting": "Escherichia coli; [2]", "result": 0, "unit": "mm"}, {"measurement": "zone of inhibition at 0.125 µg/mL", "setting": "Staphylococcus aureus; [3]", "result": 0, "unit": "mm"}, {"measurement": "zone of inhibition at 0.125 µg/mL", "setting": "Bacillus subtilis; [4]", "result": 0, "unit": "mm"}]}, {"compound": "CC1(C)S[C@@H]2[C@H](NC(=O)Cc3ccccc3)C(=O)N2[C@H]1C(=O)O", "note": "[Pencillin G, reference compound]", "values": [{"measurement": "Zone of inhibition Escherichia coli", "setting": "Escherichia coli; control antibiotic, 10 units", "result": 0, "unit": "mm"}, {"measurement": "Zone of inhibition Staphylococcus aureus", "setting": "Staphylococcus aureus; control antibiotic, 10 units", "result": 40.0, "unit": "mm"}, {"measurement": "Zone of inhibition Bacillus subtilis", "setting": "Bacillus subtilis; control antibiotic, 10 units", "result": 25.0, "unit": "mm"}]}, {"compound": "CN(C)[C@@H]1C(O)=C(C(N)=O)C(=O)[C@@]2(O)C(O)=C3C(=O)c4c(O)cccc4[C@@](C)(O)[C@H]3C[C@@H]12", "note": "[Tetracycline, reference compound]", "values": [{"measurement": "zone of inhibition at 30 µg/disc", "setting": "Escherichia coli; Escherichia coli, control antibiotic, 30 mcg", "result": 19, "unit": "mm"}, {"measurement": "zone of inhibition at 30 µg/disc", "setting": "Staphylococcus aureus; Staphylococcus aureus, control antibiotic, 30 mcg", "result": 26, "unit": "mm"}, {"measurement": "zone of inhibition at 30 µg/disc", "setting": "Bacillus subtilis; Bacillus subtilis, control antibiotic, 30 mcg", "result": 31, "unit": "mm"}]}, {"compound": "C[C@H]1[C@H](C)CC[C@]2(C(=O)O)CC[C@]3(C)C(=CC[C@@H]4[C@@]5(C)CC[C@H](O)C(C)(C)[C@@H]5CC[C@]43C)[C@H]12", "note": "[Ursolic Acid]", "values": [{"measurement": "zone of inhibition at 0.125 µg/mL", "setting": "Escherichia coli; [2]", "result": 0, "unit": "mm"}, {"measurement": "zone of inhibition at 0.125 µg/mL", "setting": "Staphylococcus aureus; [3]", "result": 0, "unit": "mm"}, {"measurement": "zone of inhibition at 0.125 µg/mL", "setting": "Bacillus subtilis; [4]", "result": 0, "unit": "mm"}]}, {"compound": "Allobetulin 2-alanine ester", "values": [{"measurement": "Zone of inhibition Escherichia coli", "setting": "Escherichia coli; [1]", "result": 0, "unit": "mm"}, {"measurement": "Zone of inhibition Staphylococcus aureus", "setting": "Staphylococcus aureus; [1]", "result": 0, "unit": "mm"}, {"measurement": "Zone of inhibition Bacillus subtilis", "setting": "Bacillus subtilis; [1]", "result": 0, "unit": "mm"}]}, {"compound": "Allobetulin 2-valine-ester", "values": [{"measurement": "Zone of inhibition Escherichia coli", "setting": "Escherichia coli; [1]", "result": 0, "unit": "mm"}, {"measurement": "Zone of inhibition Staphylococcus aureus", "setting": "Staphylococcus aureus; [1]", "result": 0, "unit": "mm"}, {"measurement": "Zone of inhibition Bacillus subtilis", "setting": "Bacillus subtilis; [1]", "result": 0, "unit": "mm"}]}, {"compound": "Allobetulin ethanol amine", "values": [{"measurement": "Zone of inhibition Escherichia coli", "setting": "Escherichia coli; [1]", "result": 0, "unit": "mm"}, {"measurement": "Zone of inhibition Staphylococcus aureus", "setting": "Staphylococcus aureus; [1]", "result": 0, "unit": "mm"}, {"measurement": "Zone of inhibition Bacillus subtilis", "setting": "Bacillus subtilis; [1]", "result": 0, "unit": "mm"}]}, {"compound": "Allobetulin glycine", "values": [{"measurement": "Zone of inhibition Escherichia coli", "setting": "Escherichia coli; [1]", "result": 0, "unit": "mm"}, {"measurement": "Zone of inhibition Staphylococcus aureus", "setting": "Staphylococcus aureus; [1]", "result": 0, "unit": "mm"}, {"measurement": "Zone of inhibition Bacillus subtilis", "setting": "Bacillus subtilis; [1]", "result": 0, "unit": "mm"}]}, {"compound": "Allobetulin-3-phthalate [Allobetulin 3-phthalate]", "values": [{"measurement": "Zone of inhibition Escherichia coli", "setting": "Escherichia coli; [1]", "result": 0, "unit": "mm"}, {"measurement": "Zone of inhibition Staphylococcus aureus", "setting": "Staphylococcus aureus; [1]", "result": 0, "unit": "mm"}, {"measurement": "Zone of inhibition Bacillus subtilis", "setting": "Bacillus subtilis; [1]", "result": 0, "unit": "mm"}]}, {"compound": "Allobetulin-3-poly (ethylene glycol) bis (carboxymethyl) ether ester", "values": [{"measurement": "Zone of inhibition Escherichia coli", "setting": "Escherichia coli; [1]", "result": 0, "unit": "mm"}, {"measurement": "Zone of inhibition Staphylococcus aureus", "setting": "Staphylococcus aureus; [1]", "result": 0, "unit": "mm"}, {"measurement": "Zone of inhibition Bacillus subtilis", "setting": "Bacillus subtilis; [1]", "result": 0, "unit": "mm"}]}]}
